PubChem BioAssay (NCI)
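Results reflect a 48-hour exposure of cells in 96-well plates to compound at five concentrations. The concentration for full growth arrest is given as TGI.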

Columns and labels:
Assay in all cases: DTP human tumour cell line panel, 48 h
CCRF-CEM leukemia = system: CCRF-CEM leukemia
EKVX NSCLC = system: EKVX NSCLC
TK-10 renal = system: TK-10 renal
SN12C renal = system: SN12C renal
SF-295 CNS = system: SF-295 CNS
SR leukemia = system: SR leukemia
MOLT-4 leukemia = system: MOLT-4 leukemia
MDA-MB-231 breast = system: MDA-MB-231 breast
COLO 205 colon = system: COLO 205 colon
SK-MEL-2 melanoma = system: SK-MEL-2 melanoma
RPMI-8226 leukemia = system: RPMI-8226 leukemia
SF-268 CNS = system: SF-268 CNS
HS 578T breast = system: HS 578T breast
T-47D breast = system: T-47D breast
A549 NSCLC = system: A549 NSCLC
NCI-H522 lung = system: NCI-H522 lung
UACC-257 melanoma = system: UACC-257 melanoma
SF-539 CNS = system: SF-539 CNS
HCT-15 colon = system: HCT-15 colon
MALME-3M melanoma = system: MALME-3M melanoma
SK-OV-3 ovarian = system: SK-OV-3 ovarian
SW-620 colon = system: SW-620 colon
BT-549 breast = system: BT-549 breast
786-0 renal = system: 786-0 renal
UO-31 renal = system: UO-31 renal
KM12 colon = system: KM12 colon
MCF7 breast = system: MCF7 breast
SK-MEL-5 melanoma = system: SK-MEL-5 melanoma
OVCAR-5 ovarian = system: OVCAR-5 ovarian
ACHN renal = system: ACHN renal
U251 CNS = system: U251 CNS
HT29 colon = system: HT29 colon
DU-145 prostate = system: DU-145 prostate
HCT-116 colon = system: HCT-116 colon
CAKI-1 renal = system: CAKI-1 renal
MDA-N = system: MDA-N
HL-60(TB) leukemia = system: HL-60(TB) leukemia
SNB-19 CNS = system: SNB-19 CNS
SK-MEL-28 melanoma = system: SK-MEL-28 melanoma
HCC-2998 colon = system: HCC-2998 colon
IGROV1 ovarian = system: IGROV1 ovarian
NCI-H460 lung = system: NCI-H460 lung
LOX IMVI melanoma = system: LOX IMVI melanoma
NCI-H23 lung = system: NCI-H23 lung
HOP-92 NSCLC = system: HOP-92 NSCLC
UACC-62 melanoma = system: UACC-62 melanoma
NCI/ADR-RES ovarian = system: NCI/ADR-RES ovarian
OVCAR-4 ovarian = system: OVCAR-4 ovarian
HOP-62 NSCLC = system: HOP-62 NSCLC
PC-3 prostate = system: PC-3 prostate
NCI-H226 lung = system: NCI-H226 lung
OVCAR-8 ovarian = system: OVCAR-8 ovarian
OVCAR-3 ovarian = system: OVCAR-3 ovarian
M14 melanoma = system: M14 melanoma
RXF 393 renal = system: RXF 393 renal
K-562 leukemia = system: K-562 leukemia
A498 renal = system: A498 renal
MDA-MB-435 = system: MDA-MB-435
SNB-75 CNS = system: SNB-75 CNS

SMILES: CC1=C(C(=O)OCCO[N+](=O)[O-])C(c2cccc([N+](=O)[O-])c2)C(C(=O)OC(C)C)=C(C)N1 (configuration not stated)
- TGI (CCRF-CEM leukemia): > 100 µM
- TGI (EKVX NSCLC): 48.9 µM
- TGI (TK-10 renal): 42.9 µM
- TGI (SN12C renal): 36.4 µM
- TGI (SF-295 CNS): 56.6 µM
- TGI (SR leukemia): > 100 µM
- TGI (MOLT-4 leukemia): > 100 µM
- TGI (MDA-MB-231 breast): 26.1 µM
- TGI (COLO 205 colon): 24.4 µM
- TGI (SK-MEL-2 melanoma): 28 µM
- TGI (RPMI-8226 leukemia): > 100 µM
- TGI (SF-268 CNS): 33 µM
- TGI (HS 578T breast): 33.2 µM
- TGI (T-47D breast): 53.6 µM
- TGI (A549 NSCLC): 37.4 µM
- TGI (NCI-H522 lung): 34.9 µM
- TGI (UACC-257 melanoma): 25.2 µM
- TGI (SF-539 CNS): 30.5 µM
- TGI (HCT-15 colon): 27.4 µM
- TGI (MALME-3M melanoma): 51.9 µM
- TGI (SK-OV-3 ovarian): 36.9 µM
- TGI (SW-620 colon): 51.1 µM
- TGI (BT-549 breast): 27.1 µM
- TGI (786-0 renal): 35.7 µM
- TGI (UO-31 renal): 28.1 µM
- TGI (KM12 colon): 23.1 µM
- TGI (MCF7 breast): 86.3 µM
- TGI (SK-MEL-5 melanoma): 26.1 µM
- TGI (OVCAR-5 ovarian): 30.4 µM
- TGI (ACHN renal): > 100 µM
- TGI (U251 CNS): 28.7 µM
- TGI (HT29 colon): 29.2 µM
- TGI (DU-145 prostate): 65.9 µM
- TGI (HCT-116 colon): 22.2 µM
- TGI (CAKI-1 renal): 95.7 µM
- TGI (MDA-N): 28.1 µM
- TGI (HL-60(TB) leukemia): > 100 µM
- TGI (SNB-19 CNS): 75.4 µM
- TGI (SK-MEL-28 melanoma): 28.1 µM
- TGI (HCC-2998 colon): 29.6 µM
- TGI (IGROV1 ovarian): 33.9 µM
- TGI (NCI-H460 lung): 34.4 µM
- TGI (LOX IMVI melanoma): 31.6 µM
- TGI (NCI-H23 lung): 45.7 µM
- TGI (HOP-92 NSCLC): 25.5 µM
- TGI (UACC-62 melanoma): 30.2 µM
- TGI (NCI/ADR-RES ovarian): 34.3 µM
- TGI (OVCAR-4 ovarian): 37.7 µM
- TGI (HOP-62 NSCLC): 30.9 µM
- TGI (PC-3 prostate): 15.6 µM
- TGI (NCI-H226 lung): 28.2 µM
- TGI (OVCAR-8 ovarian): 54.2 µM
- TGI (OVCAR-3 ovarian): 23.6 µM
- TGI (M14 melanoma): 29.5 µM
- TGI (RXF 393 renal): 31.5 µM
- TGI (K-562 leukemia): > 100 µM
- TGI (A498 renal): 46.8 µM
- TGI (MDA-MB-435): 30.9 µM

SMILES: NC(N)=Nc1ccc(-c2ccc(N=C(N)N)cc2)cc1
- TGI (CCRF-CEM leukemia): > 95.7 µM
- TGI (EKVX NSCLC): > 100 µM
- TGI (TK-10 renal): 36.5 µM
- TGI (SN12C renal): > 100 µM
- TGI (SF-295 CNS): > 100 µM
- TGI (SR leukemia): > 100 µM
- TGI (MOLT-4 leukemia): > 100 µM
- TGI (MDA-MB-231 breast): > 100 µM
- TGI (COLO 205 colon): 47 µM
- TGI (SK-MEL-2 melanoma): 99.7 µM
- TGI (RPMI-8226 leukemia): 66.3 µM
- TGI (SF-268 CNS): > 100 µM
- TGI (HS 578T breast): 67.3 µM
- TGI (T-47D breast): > 100 µM
- TGI (A549 NSCLC): > 100 µM
- TGI (NCI-H522 lung): > 100 µM
- TGI (UACC-257 melanoma): > 100 µM
- TGI (SF-539 CNS): 74.7 µM
- TGI (HCT-15 colon): > 100 µM
- TGI (MALME-3M melanoma): 62.6 µM
- TGI (SK-OV-3 ovarian): > 100 µM
- TGI (SW-620 colon): > 100 µM
- TGI (BT-549 breast): > 100 µM
- TGI (786-0 renal): > 100 µM
- TGI (UO-31 renal): > 100 µM
- TGI (KM12 colon): > 100 µM
- TGI (MCF7 breast): > 100 µM
- TGI (SK-MEL-5 melanoma): 54.1 µM
- TGI (OVCAR-5 ovarian): 81.3 µM
- TGI (ACHN renal): > 100 µM
- TGI (U251 CNS): > 100 µM
- TGI (HT29 colon): > 100 µM
- TGI (DU-145 prostate): > 76.1 µM
- TGI (HCT-116 colon): > 100 µM
- TGI (CAKI-1 renal): > 100 µM
- TGI (MDA-N): > 100 µM
- TGI (HL-60(TB) leukemia): > 100 µM
- TGI (SNB-19 CNS): > 100 µM
- TGI (SK-MEL-28 melanoma): > 100 µM
- TGI (HCC-2998 colon): > 100 µM
- TGI (IGROV1 ovarian): > 89.6 µM
- TGI (NCI-H460 lung): > 100 µM
- TGI (LOX IMVI melanoma): > 100 µM
- TGI (NCI-H23 lung): > 100 µM
- TGI (HOP-92 NSCLC): > 100 µM
- TGI (UACC-62 melanoma): > 100 µM
- TGI (NCI/ADR-RES ovarian): > 100 µM
- TGI (OVCAR-4 ovarian): > 100 µM
- TGI (HOP-62 NSCLC): > 100 µM
- TGI (PC-3 prostate): 75.9 µM
- TGI (NCI-H226 lung): 65.4 µM
- TGI (OVCAR-8 ovarian): > 100 µM
- TGI (OVCAR-3 ovarian): > 100 µM
- TGI (M14 melanoma): > 100 µM
- TGI (RXF 393 renal): > 100 µM
- TGI (K-562 leukemia): > 100 µM
- TGI (A498 renal): > 100 µM
- TGI (MDA-MB-435): > 100 µM
- TGI (SNB-75 CNS): 86.1 µM
